Experimental data: patent US10167262B2, “Herbicidal substituted 3-arylpyrazoles” (FMC CORPORATION, priority 2014, dated 2019)

How the values were obtained:
Assay in all cases: Test E pre-/postemergence greenhouse test, plant response rating 0-100
Assay type in all cases: in vivo
Conditions in all cases: Postemergence, scale 0 to 100
[1] = test system: Brazilian crabgrass (Digitaria horizontalis)
From the text: (§1) Seeds of plant species selected from corn (Zea mays), soybean (Glycine max), velvetleaf (Abutilon theophrasti), lambsquarters (Chenopodium album), wild poinsettia (Euphorbia heterophylla), palmer pigweed (Amaranthus palmeri), waterhemp (common waterhemp, Amaranthus rudis), surinam grass (Brachiaria decumbens), large (Lg) crabgrass (Digitaria sanguinalis), Brazilian crabgrass (Digitaria horizontalis), fall panicum (Panicum dichotomiflorum), giant foxtail (Setaria faberii), green foxtail (Setaria viridis), goosegrass (Eleusine indica), johnsongrass (Sorghum halepense), ragweed (common ragweed, Ambrosia elatior), barnyardgrass (Echinochloa crus-galli), sandbur (southern sandbur, Cenchrus echinatus), arrowleaf sida (Sida rhombifolia), Italian ryegrass (Lolium multiflorum), dayflower (Virginia (VA) dayflower, Commelina virginica), field bindweed (Convolvulus arvensis), morningglory (Ipomoea coccinea), nightshade (eastern black nightshade, Solanum ptycanthum), kochia (Kochia scoparia), yellow nutsedge (Cyperus esculentus), smartweed (ladysthumb smartweed, Polygonum persicaria), cocklebur (common cocklebur, Xanthium strumarium), and hairy beggarticks (Bidens pilosa), were planted into a silt loam soil and treated preemergence with test chemicals formulated in a non-phytotoxic solvent mixture which included a surfactant.
(§2) At the same time, plants from these crop and weed species and also waterhemp_RES1, (ALS & Triazine resistant common waterhemp, Amaranthus rudis), and waterhemp_RES2, (ALS & HPPD resistant common waterhemp, Amaranthus rudis) were planted in pots containing Redi-Earth® planting medium (Scotts Company, 14111 Scottslawn Road, Marysville, Ohio 43041) comprising spaghnum peat moss, vermiculite, wetting agent and starter nutrients were treated with postemergence applications of test chemicals formulated in the same manner. Plants ranged in height from 2 to 18 cm for postemergence treatments (1- to 4-leaf stage).
(§3) Treated plants and controls were maintained in a greenhouse for 14 to 21 days, after which time all species were compared to controls and visually evaluated. Plant response ratings, summarized in Table E, are based on a scale of 0 to 100 where 0 is no effect and 100 is complete control. A dash (-) response means no test result.

[2] = test system: wild poinsettia (Euphorbia heterophylla)
From the text: as §1, §2, §3

[3] = test system: sandbur (southern sandbur, Cenchrus echinatus)
From the text: as §1, §2, §3

soybean (Glycine max) = test system: soybean (Glycine max)
From the text: as §1, §2, §3

[4] = test system: field bindweed (Convolvulus arvensis)
From the text: as §1, §2, §3

[5] = test system: Italian ryegrass (Lolium multiflorum)
From the text: as §1, §2, §3

[6] = test system: barnyardgrass (Echinochloa crus-galli)
From the text: as §1, §2, §3

corn (Zea mays) = test system: corn (Zea mays)
From the text: as §1, §2, §3

[7] = test system: waterhemp (common waterhemp, Amaranthus rudis)
From the text: as §1, §2, §3

[8] = test system: fall panicum (Panicum dichotomiflorum)
From the text: as §1, §2, §3

[9] = test system: dayflower (Virginia (VA) dayflower, Commelina virginica)
From the text: as §1, §2, §3

ON=C(c1ccccc1)c1c[nH]nc1-c1cc(Cl)cc(Cl)c1 [Compound 50]
Plant response rating, Crabgrass, Brazil ([1]; 31 g ai/ha): 0 | Plant response rating, Crabgrass, Brazil ([1]; 62 g ai/ha): 0 | Plant response rating, Crabgrass, Brazil ([1]; 125 g ai/ha): 0 | Plant response rating, Crabgrass, Brazil ([1]; 250 g ai/ha): 0 | Plant response rating, Crabgrass, Brazil ([1]; 500 g ai/ha): 0 | Plant response rating, Poinsettia, Wild ([2]; 31 g ai/ha): 0 | Plant response rating, Poinsettia, Wild ([2]; 62 g ai/ha): 0 | Plant response rating, Poinsettia, Wild ([2]; 125 g ai/ha): 0 | Plant response rating, Poinsettia, Wild ([2]; 250 g ai/ha): 20 | Plant response rating, Poinsettia, Wild ([2]; 500 g ai/ha): 30 | Plant response rating, Sandbur ([3]; 31 g ai/ha): 0 | Plant response rating, Sandbur ([3]; 62 g ai/ha): 0 | Plant response rating, Sandbur ([3]; 125 g ai/ha): 0 | Plant response rating, Sandbur ([3]; 250 g ai/ha): 0 | Plant response rating, Sandbur ([3]; 500 g ai/ha): 0 | Plant response rating, Soybean (soybean (Glycine max); 31 g ai/ha): 0 | Plant response rating, Soybean (soybean (Glycine max); 62 g ai/ha): 0 | Plant response rating, Soybean (soybean (Glycine max); 125 g ai/ha): 0 | Plant response rating, Soybean (soybean (Glycine max); 250 g ai/ha): 0 | Plant response rating, Soybean (soybean (Glycine max); 500 g ai/ha): 0 | Plant response rating, Field Bindweed ([4]; 31 g ai/ha): 0 | Plant response rating, Field Bindweed ([4]; 62 g ai/ha): 0 | Plant response rating, Field Bindweed ([4]; 125 g ai/ha): 0 | Plant response rating, Field Bindweed ([4]; 250 g ai/ha): 0 | Plant response rating, Field Bindweed ([4]; 500 g ai/ha): 5 | Plant response rating, Ryegrass, Italian ([5]; 31 g ai/ha): 0 | Plant response rating, Ryegrass, Italian ([5]; 62 g ai/ha): 0 | Plant response rating, Ryegrass, Italian ([5]; 125 g ai/ha): 0 | Plant response rating, Ryegrass, Italian ([5]; 250 g ai/ha): 0 | Plant response rating, Ryegrass, Italian ([5]; 500 g ai/ha): 0 | Plant response rating, Barnyardgrass ([6]; 31 g ai/ha): 0 | Plant response rating, Barnyardgrass ([6]; 62 g ai/ha): 0 | Plant response rating, Barnyardgrass ([6]; 125 g ai/ha): 0 | Plant response rating, Barnyardgrass ([6]; 250 g ai/ha): 0 | Plant response rating, Barnyardgrass ([6]; 500 g ai/ha): 10 | Plant response rating, Corn (corn (Zea mays); 31 g ai/ha): 0 | Plant response rating, Corn (corn (Zea mays); 62 g ai/ha): 0 | Plant response rating, Corn (corn (Zea mays); 125 g ai/ha): 0 | Plant response rating, Corn (corn (Zea mays); 250 g ai/ha): 0 | Plant response rating, Corn (corn (Zea mays); 500 g ai/ha): 0 | Plant response rating, Waterhemp ([7]; 31 g ai/ha): 80 | Plant response rating, Waterhemp ([7]; 125 g ai/ha): 90 | Plant response rating, Waterhemp ([7]; 250 g ai/ha): 100 | Plant response rating, Waterhemp ([7]; 500 g ai/ha): 100 | Plant response rating, Panicum, Fall ([8]; 31 g ai/ha): 0 | Plant response rating, Panicum, Fall ([8]; 62 g ai/ha): 0 | Plant response rating, Panicum, Fall ([8]; 125 g ai/ha): 0 | Plant response rating, Panicum, Fall ([8]; 250 g ai/ha): 0 | Plant response rating, Panicum, Fall ([8]; 500 g ai/ha): 0 | Plant response rating, Dayflower, VA ([9]; 31 g ai/ha): 0 | Plant response rating, Dayflower, VA ([9]; 62 g ai/ha): 0 | Plant response rating, Dayflower, VA ([9]; 125 g ai/ha): 0 | Plant response rating, Dayflower, VA ([9]; 250 g ai/ha): 0 | Plant response rating, Dayflower, VA ([9]; 500 g ai/ha): 0
